Experimental findings from ChEMBL document CHEMBL5465560, “Selectivity Literature for EUbOPEN Chemogenomic Library” (2024) are described below.

Data set [1] concerns the target Leukocyte tyrosine kinase receptor (Homo sapiens, UniProt P29376). As to the kind of experiment: Selectivity interaction (KinomeScan (DiscoverX)) EUB0001619a LTK. As to conditions: at 1 µM.
For data set [2], the target named is T1, Serine/threonine-protein kinase TBK1 (Homo sapiens) (UniProt Q9UHD2).
T1 sequence (whole entry): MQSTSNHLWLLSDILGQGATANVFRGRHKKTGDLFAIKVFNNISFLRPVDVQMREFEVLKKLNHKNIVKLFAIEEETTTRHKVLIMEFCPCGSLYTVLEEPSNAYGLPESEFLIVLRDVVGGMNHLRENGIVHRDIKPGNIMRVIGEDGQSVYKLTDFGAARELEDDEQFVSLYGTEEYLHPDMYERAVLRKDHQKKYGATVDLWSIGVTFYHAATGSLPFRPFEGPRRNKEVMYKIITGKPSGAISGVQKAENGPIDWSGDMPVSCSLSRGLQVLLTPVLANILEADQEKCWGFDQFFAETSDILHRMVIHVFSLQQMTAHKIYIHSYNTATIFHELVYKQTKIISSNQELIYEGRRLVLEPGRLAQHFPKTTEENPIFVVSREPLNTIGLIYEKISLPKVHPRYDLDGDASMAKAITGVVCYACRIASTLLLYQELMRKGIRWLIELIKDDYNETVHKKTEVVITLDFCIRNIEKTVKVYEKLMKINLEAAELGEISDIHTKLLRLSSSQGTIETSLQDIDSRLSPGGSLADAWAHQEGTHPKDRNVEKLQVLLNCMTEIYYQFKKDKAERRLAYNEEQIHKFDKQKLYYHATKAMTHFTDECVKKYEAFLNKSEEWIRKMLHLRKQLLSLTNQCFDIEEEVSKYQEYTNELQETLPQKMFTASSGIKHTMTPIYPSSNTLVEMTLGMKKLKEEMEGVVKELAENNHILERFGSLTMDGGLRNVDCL
As to the kind of experiment: Selectivity interaction (ActivX KiNativ screen (ex vivo kinase selectivity in human PBMCs)) EUB0001619a TBK1. Format: cell-based. As to conditions: PBMC, at 1 µM.

The target in data set [3] is T2, Rhodopsin kinase GRK1 (Homo sapiens) (UniProt Q15835).
T2 sequence (whole entry): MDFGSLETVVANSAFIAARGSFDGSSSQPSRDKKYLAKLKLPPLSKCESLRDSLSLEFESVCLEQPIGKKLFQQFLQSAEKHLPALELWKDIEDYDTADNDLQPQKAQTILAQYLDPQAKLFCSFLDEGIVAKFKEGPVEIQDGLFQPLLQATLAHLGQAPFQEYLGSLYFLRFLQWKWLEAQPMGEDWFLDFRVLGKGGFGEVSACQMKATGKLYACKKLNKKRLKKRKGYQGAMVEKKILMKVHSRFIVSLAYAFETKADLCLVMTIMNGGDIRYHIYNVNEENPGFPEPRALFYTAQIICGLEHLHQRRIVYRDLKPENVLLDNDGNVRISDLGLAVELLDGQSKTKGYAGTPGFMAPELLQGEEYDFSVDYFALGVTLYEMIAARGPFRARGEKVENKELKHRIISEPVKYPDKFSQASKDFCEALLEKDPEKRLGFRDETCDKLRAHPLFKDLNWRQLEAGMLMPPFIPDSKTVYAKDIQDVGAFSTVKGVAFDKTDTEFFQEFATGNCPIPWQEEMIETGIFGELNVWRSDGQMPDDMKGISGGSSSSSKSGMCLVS
As to the kind of experiment: Selectivity interaction (KinomeScan (DiscoverX)) EUB0000695a GRK1. As to conditions: at 100 nM.

The target in data set [4] is Serine/threonine-protein kinase PAK 1 (Homo sapiens) (UniProt Q13153). Put plainly: Selectivity interaction (KinomeScan (DiscoverX)) EUB0000695a PAK1. Conditions: at 100 nM.
Chain of Serine/threonine-protein kinase PAK 1 (Homo sapiens) (Q13153 whole entry): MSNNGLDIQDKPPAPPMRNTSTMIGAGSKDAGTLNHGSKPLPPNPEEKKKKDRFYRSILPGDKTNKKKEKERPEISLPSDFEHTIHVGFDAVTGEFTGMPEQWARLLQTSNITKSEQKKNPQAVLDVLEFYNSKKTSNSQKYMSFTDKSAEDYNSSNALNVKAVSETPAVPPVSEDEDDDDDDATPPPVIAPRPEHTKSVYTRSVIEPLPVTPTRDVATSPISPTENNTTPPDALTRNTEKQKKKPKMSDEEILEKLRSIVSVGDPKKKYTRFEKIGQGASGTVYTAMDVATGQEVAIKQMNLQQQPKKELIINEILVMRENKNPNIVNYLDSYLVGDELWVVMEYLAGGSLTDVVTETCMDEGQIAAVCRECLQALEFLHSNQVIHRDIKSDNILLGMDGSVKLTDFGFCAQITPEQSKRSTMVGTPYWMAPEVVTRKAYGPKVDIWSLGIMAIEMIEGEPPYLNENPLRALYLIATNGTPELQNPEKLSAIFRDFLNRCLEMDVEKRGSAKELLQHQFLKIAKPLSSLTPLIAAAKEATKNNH
For data set [5], the system named is Fibroblast growth factor receptor 3 (Homo sapiens), P22607 [K650E]. As to the kind of experiment: (§1) Selectivity interaction (SelectScreen profiling (Invitrogen)) EUB0000607a FGFR3. As to conditions: at 2 µM.
Data set [6] deals with Fibroblast growth factor receptor 3 (Homo sapiens, UniProt P22607). The data set is described as §1. As to conditions: at 2 µM.
The target in a further data set is SRSF protein kinase 1 (Homo sapiens, UniProt Q96SB4). Put plainly: Selectivity interaction (KinomeScan (DiscoverX)) EUB0000607a SRPK1. Conditions: at 10 µM.
Chain of SRSF protein kinase 1 (Q96SB4 whole entry): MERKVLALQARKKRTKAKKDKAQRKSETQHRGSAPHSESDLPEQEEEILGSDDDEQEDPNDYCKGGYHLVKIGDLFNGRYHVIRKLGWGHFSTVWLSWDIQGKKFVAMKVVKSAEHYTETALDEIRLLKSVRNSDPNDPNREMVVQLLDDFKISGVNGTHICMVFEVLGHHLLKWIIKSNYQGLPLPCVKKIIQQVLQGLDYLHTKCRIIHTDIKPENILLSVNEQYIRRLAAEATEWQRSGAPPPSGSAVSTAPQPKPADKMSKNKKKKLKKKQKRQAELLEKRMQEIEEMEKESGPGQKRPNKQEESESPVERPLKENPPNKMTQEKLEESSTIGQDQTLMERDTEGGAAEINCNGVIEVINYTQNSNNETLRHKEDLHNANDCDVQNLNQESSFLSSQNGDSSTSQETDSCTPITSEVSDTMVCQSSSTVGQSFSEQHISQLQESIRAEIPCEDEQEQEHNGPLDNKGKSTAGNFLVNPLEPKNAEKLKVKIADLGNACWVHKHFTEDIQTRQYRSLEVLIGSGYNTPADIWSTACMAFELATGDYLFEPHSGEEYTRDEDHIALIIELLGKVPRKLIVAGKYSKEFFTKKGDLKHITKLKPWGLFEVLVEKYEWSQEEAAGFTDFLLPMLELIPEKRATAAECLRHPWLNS
Data set [7] addresses T3, cAMP-dependent protein kinase catalytic subunit PRKX (Homo sapiens) (UniProt P51817).
T3 sequence (whole entry): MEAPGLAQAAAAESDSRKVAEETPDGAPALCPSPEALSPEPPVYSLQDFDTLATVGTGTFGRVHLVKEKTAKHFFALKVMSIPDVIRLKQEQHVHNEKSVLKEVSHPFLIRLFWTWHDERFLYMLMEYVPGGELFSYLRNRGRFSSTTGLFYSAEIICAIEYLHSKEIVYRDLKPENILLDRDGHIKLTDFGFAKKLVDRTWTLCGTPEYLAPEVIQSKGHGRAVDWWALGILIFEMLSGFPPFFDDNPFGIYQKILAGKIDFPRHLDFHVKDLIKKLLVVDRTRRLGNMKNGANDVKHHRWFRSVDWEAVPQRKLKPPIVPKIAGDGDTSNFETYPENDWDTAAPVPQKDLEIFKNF
As to the kind of experiment: Selectivity interaction (Kinase screening (Nanosyn)) EUB0000604a PRKX.

Data set [8] has as its target Protein-tyrosine kinase 2-beta (Homo sapiens) (UniProt Q14289). As to the kind of experiment: Selectivity interaction (Kinase panel (Invitrogen)) EUB0000639a PTK2B. Conditions: at 200 nM.
For data set [9], the target named is Tyrosine-protein kinase Fer (Homo sapiens) (UniProt P16591). As to the kind of experiment: Selectivity interaction (Upstate Kinase Profiler service (Millipore)) EUB0000056c FER. As to conditions: at 1 µM.
Chain of Tyrosine-protein kinase Fer (Homo sapiens) (P16591 whole entry, looked up): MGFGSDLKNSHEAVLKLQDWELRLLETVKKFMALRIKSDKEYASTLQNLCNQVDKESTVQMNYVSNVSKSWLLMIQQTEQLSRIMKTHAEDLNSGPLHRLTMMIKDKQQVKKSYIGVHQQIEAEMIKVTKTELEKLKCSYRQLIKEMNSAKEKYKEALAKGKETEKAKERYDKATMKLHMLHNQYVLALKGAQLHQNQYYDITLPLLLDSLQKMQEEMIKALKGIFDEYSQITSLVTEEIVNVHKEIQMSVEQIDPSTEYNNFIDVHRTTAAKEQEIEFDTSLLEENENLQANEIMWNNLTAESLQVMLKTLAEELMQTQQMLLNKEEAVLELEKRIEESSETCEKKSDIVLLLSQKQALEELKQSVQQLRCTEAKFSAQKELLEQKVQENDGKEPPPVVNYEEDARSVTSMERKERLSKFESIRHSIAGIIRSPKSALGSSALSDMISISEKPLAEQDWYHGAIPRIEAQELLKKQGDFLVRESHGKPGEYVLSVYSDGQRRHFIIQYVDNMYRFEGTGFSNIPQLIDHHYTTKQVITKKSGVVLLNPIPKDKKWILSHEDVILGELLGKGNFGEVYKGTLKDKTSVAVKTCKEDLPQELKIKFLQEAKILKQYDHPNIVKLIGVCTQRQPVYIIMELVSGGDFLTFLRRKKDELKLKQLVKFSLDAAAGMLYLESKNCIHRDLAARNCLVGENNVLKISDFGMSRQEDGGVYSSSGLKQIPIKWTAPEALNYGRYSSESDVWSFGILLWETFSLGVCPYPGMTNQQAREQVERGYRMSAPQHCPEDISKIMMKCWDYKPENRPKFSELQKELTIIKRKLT
Data set [10] concerns the target Serine/threonine-protein kinase 26 (Homo sapiens, UniProt Q9P289). As to the kind of experiment: Selectivity interaction (Kinase panel (DSF assay)) EUB0001558a STK26. A general note: Differential scanning fluorimetry follows unfolding on heating by fluorescence.
The next data set addresses PXR (NR1I2) (Homo sapiens, UniProt O75469). As to the kind of experiment: Selectivity interaction (Panel of kinases, GPCRs, ion channels and transporters (enzymatic assay)) EUB0000266bCl NR1I2.
For data set [11], the target named is Cyclin-dependent kinase 14 (Homo sapiens) (UniProt O94921). Put plainly: Selectivity interaction (Kinase panel (KiNativ target engagement assay in Jurkat cells)) EUB0001635a CDK14. Conditions: at 1 µM. Format: cell-based.
Chain of Cyclin-dependent kinase 14 (Homo sapiens) (O94921 whole entry): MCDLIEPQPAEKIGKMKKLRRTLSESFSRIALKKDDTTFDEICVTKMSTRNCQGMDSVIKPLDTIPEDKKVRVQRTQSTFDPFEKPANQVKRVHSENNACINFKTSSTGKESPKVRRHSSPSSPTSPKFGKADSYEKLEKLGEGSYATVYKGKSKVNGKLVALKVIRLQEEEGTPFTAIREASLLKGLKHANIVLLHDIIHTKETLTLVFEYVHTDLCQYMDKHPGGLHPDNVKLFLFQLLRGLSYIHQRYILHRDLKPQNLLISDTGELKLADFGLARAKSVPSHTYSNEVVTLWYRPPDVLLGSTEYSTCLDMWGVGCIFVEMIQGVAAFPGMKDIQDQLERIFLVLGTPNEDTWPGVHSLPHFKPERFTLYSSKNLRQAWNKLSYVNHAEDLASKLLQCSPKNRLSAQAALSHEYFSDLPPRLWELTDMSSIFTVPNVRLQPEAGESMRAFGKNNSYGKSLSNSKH
The target of data set [12] is Serine/threonine-protein kinase MARK1 (Homo sapiens) (UniProt Q9P0L2). Put plainly: Selectivity interaction (Kinase panel (KiNativ target engagement assay in Jurkat cells)) EUB0001635a MARK1. In kind it is cell-based. Conditions: at 1 µM.
Chain of Serine/threonine-protein kinase MARK1 (Homo sapiens) (Q9P0L2 whole entry, looked up): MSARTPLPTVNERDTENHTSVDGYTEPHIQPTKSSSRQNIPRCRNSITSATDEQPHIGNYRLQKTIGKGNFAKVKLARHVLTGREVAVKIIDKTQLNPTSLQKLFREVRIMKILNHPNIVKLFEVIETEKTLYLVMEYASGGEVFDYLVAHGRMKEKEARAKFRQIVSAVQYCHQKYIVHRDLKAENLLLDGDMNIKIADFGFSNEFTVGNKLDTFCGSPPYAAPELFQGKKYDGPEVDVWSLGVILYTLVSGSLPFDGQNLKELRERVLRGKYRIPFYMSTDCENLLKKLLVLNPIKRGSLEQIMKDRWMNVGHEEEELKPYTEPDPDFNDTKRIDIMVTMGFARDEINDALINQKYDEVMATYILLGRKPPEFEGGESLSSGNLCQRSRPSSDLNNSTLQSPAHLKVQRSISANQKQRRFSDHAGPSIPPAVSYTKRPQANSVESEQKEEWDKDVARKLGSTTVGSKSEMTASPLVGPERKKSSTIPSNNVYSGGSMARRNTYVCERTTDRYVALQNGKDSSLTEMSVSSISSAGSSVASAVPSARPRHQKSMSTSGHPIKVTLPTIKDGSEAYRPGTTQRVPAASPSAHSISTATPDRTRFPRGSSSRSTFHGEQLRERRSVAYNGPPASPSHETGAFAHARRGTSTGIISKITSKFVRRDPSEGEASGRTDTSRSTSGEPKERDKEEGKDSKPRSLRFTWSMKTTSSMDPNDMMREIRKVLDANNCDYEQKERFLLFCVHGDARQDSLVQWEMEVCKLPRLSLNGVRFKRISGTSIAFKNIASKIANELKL

Chain of PXR (NR1I2) (O75469 whole entry): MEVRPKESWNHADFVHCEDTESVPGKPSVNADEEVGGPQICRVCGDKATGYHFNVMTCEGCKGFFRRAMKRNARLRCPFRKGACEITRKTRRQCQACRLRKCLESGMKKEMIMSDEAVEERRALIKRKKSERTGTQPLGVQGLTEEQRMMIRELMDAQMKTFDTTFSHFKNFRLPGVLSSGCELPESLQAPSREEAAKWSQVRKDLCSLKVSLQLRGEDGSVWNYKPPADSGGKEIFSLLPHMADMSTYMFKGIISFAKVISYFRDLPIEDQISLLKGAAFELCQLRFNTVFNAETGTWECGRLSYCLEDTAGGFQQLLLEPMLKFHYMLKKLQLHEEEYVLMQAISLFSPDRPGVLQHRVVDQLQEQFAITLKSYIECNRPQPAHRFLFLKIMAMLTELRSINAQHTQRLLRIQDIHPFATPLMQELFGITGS
Chain of Leukocyte tyrosine kinase receptor (P29376 whole entry): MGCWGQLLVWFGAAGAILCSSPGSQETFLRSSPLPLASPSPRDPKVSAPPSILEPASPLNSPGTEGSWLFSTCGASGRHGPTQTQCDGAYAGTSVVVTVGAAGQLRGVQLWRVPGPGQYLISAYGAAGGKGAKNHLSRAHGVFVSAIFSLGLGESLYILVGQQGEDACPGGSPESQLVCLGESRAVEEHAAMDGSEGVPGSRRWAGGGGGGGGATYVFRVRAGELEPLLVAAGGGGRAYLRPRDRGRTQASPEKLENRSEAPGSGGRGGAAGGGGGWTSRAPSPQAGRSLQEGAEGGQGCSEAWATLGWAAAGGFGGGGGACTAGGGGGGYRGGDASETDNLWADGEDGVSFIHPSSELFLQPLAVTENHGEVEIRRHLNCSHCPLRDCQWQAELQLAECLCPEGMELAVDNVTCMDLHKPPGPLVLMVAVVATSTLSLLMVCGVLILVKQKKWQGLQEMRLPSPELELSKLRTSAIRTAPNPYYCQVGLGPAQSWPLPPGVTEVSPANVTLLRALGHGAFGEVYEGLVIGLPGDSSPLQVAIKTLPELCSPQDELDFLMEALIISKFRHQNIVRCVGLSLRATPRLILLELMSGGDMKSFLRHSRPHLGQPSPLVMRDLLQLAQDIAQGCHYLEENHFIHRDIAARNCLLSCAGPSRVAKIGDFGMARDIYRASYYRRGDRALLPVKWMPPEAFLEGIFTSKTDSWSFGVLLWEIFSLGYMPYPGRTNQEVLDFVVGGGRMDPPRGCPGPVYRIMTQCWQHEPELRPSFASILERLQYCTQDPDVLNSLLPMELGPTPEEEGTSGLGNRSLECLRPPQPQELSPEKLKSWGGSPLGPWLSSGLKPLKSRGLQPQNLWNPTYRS
Chain of Serine/threonine-protein kinase 26 (Q9P289 2-416 limits assumed): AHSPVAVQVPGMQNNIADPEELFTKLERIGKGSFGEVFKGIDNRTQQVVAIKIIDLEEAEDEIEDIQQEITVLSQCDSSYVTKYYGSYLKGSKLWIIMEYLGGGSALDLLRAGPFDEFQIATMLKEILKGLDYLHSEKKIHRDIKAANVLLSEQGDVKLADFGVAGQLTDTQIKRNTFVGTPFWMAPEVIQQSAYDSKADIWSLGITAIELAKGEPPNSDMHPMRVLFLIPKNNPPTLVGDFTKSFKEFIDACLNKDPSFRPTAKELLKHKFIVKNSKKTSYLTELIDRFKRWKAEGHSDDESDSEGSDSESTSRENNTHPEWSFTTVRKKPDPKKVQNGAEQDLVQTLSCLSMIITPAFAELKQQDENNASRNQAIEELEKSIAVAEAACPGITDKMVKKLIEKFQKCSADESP

`N#Cc1cccc(-c2c[nH]c3ncnc(N4CCOCC4)c23)c1` showed a % of control in [1] of 100%. For the same molecule, the % of inhibition in data set [2] is 19%.

As for `Cc1cc(F)c(C(=O)Nc2cccc(-c3nncn3C(C)C)n2)cc1-n1cnc(C2CC2)c1`, the % of control in data set [3] and in [4] was 100% throughout. For the molecule `CNC(=O)Nc1ccc(-c2nc(N3CC4CCC(C3)O4)c3cnn(C4CCC5(CC4)OCCO5)c3n2)cc1`, the values for the % of inhibition in [5] and in data set [6] were 6% and 5%, respectively. The molecule further gave a % of control on SRSF protein kinase 1 of 100%. As for `Cc1cnc(Nc2ccc(F)cc2Cl)nc1-c1c[nH]c(C(=O)N[C@H](CO)c2cccc(Cl)c2)c1`, the % of inhibition in data set [7] was 3%.

As for `CC[C@@H]1[C@H](F)C(=O)N[C@@H]1COc1nccc2cc(C(N)=O)c(OC)cc12` [ZIMLOVISERTIB], the % of inhibition in [8] was -0.0574%.

As to `Cc1ccc(-c2ccc3c(ccc4sc5c(c43)NC[C@@H](C)NC5=O)n2)cn1`, the % of inhibition in [9] is 11%. Regarding `CC(C)(O)[C@H](F)CN1Cc2cc(NC(=O)c3cnn4cccnc34)c(N3CCOCC3)cc2C1=O`, in data set [10], the dTM worked out at 0.4 K. `CCn1c(-c2nc3cc(C(=O)N4CCCC(N)C4)ccc3n2C)cc2ccccc21` (centres undefined): the XC50 at PXR (NR1I2) is > 50.1 µM. On to `C=CC(=O)Nc1ccc(C(=O)Nc2[nH]nc3c2CN(C(=O)N[C@H](CN(C)C)c2ccccc2)C3(C)C)cc1`, for which the % of engagement in data set [11] is -33.3%; in [12], 8.7%.
